Where two headings read alike, the source gives them in different places.
Legend:
platelet activation = assay: Inhibition of platelet activation, with or without RBCs (flow cytometry); assay type: cell-based; details: for effect on nitrite-mediated inhibition of platelet activation by RBCs: NO scavenger or RBC surface thiol blocker added
From the text: This disclosure also teaches that far-red and near infrared light dramatically enhance nitrite bioactivation by RBCs. Far-red light (about 600-750 nm) and near infrared light (about 700-1400 nm) have been used clinically for improved wound healing, tissue generation, reduction of inflammation, and increasing cerebral blood flow to improve cognition. The mechanism for these actions has been attributed generally to increased blood flow, tissue oxygenation, and angiogenesis secondary to improved mitochondrial function attributed to cytochrome c oxidase redox state and function. However, it was not clear how improvement in cytochrome c oxidation state could account for increased blood flow and other effects of infrared/far-red light. […] The data shown in FIG. 2 strongly supports this premise (note scales). Previous work using inhibition of platelet activation as a measure of nitrite bioactivation has shown that (i) RBCs are necessary for nitrite-mediated inhibition of platelet activation (while other NO donors' ability to inhibit platelet activation is blunted by the presence of RBCs), (ii) this action is abrogated by an NO scavenger, (iii) this action is achieved with plasma levels of nitrite easily attained through dietary nitrate interventions, and (iv) this action involves RBC surface thiols. […] This is attributed to accumulating steady state NO species on the surface of the RBCs. The effects of far-red light without nitrite treatment are small and variable, perhaps reflecting small amounts of nitrite present at steady state and varying between individuals due to diet and other factors.
Nitrite addition to activated platelets in the absence of RBCs has no effect (FIG. 2A—note scale is expanded). […] This interaction is depicted in FIG. 1. It has been shown that Hb is the primary erythrocytic nitrite reductase and that nitrite bioactivation by RBCs involves NO. […] Nitrite is the best suited NO donor for treating thrombosis as it requires the presence of RBCs to work while others efficacy is blunted by RBCs (via the reaction described in Equation 2).
where the ferric hemin reversibly binds NO, GSH reduces the hemin and forms a thiyl radical which then reacts with NO, similar to a mechanism proposed for DNIC formation. The formation of the thiyl radical is supported by lower GSNO yield when the thiyl radical trap 5,5-dimethyl-1-pyrroline N-oxide (DMPO) is added (FIG. 4D). Thus, this system of hemin, NO and thiol (all present in the RBC after nitrite addition) yield both species of interest: nitrosothiols and heme-nitrosyls (which can bind to a surface thiol). Studies using RBCs. […] This inhibition was abrogated by pre-treatment with the thiol binding agent N-ethyl maleimide (NEM) (FIG. 5).

[1] = tested on: device thrombosis in extracorporeal circuit
From the text: Two Mito MD LED sources were employed with the tubing sandwiched in between. The power of the LEDs is reported as 100 mW/cm^2 at 6 inches from the device and we measured 35 mW/cm^2 at this distance and 230 mW/cm^2 directly at the surface. […] The system was also maintained at the desired temperature using a circulating water bath attached to the oxygenator representative of use conditions. The blood was deoxygenated by flowing nitrogen through the oxygenator to mimic venous blood from a real patient and hemoglobin saturation was about 70% or so, as tested using absorption spectroscopy and our integrating sphere detector for turbid samples.
Disclosed herein are outcome measures to test the efficacy of the device, including: • (1) Patency of the device. Whether enough clotting will occur to impede flow enough so that the experiment needs to be stopped before six hours of testing. The time to stopping was recorded. • (2) Pressure as a function of time. The pressure in the circuit was recorded every 15 minutes with higher pressures indicating occlusive clotting. • (3) Visual inspection for clotting. Tubing was examined thoroughly every 15 minutes with flashlights and photographs were taken to record the size and number of visual clots. • (4) Blood aliquots were collected every 15 minutes to measure oxygenation state of hemoglobin (so the nitrogen flow can be adjusted). A spectrometer was used with an integrating sphere that collected scattered light to get true absorption of turbid samples. […] RBCS were sedimented and hemoglobin concentration in the supernatant determined by absorption spectroscopy. • (7) Platelet count was assessed as part of a complete blood count. Platelet count goes down as platelets adhere and aggregate in the system.
In addition, nitrite was measured to assess the effective dose that a patient may encounter. […] For all experiments, the same blood was used for control and treatment and the same amount of calcium infused at the same timepoints.
The system was tested by comparing treatment to control in terms of patency, platelet count, and platelet activation.

[2] = target: T1, partially deoxygenated hemoglobin (Homo sapiens, UniProt P68871+P69905); details: cited from earlier work
clotting in blood = details: TEG, RBCs present
Description: (§1) The effects of nitrite and light on reducing clotting in blood were conducted by comparing sham, light alone, nitrite alone and the combination.

platelet adhesion = details: dual treatment: nitrite plus far-red light
From the text: (§2) Also disclosed herein is a mechanism though which […] potentiates the anti-thrombotic effects of far-red light. […] The effects of combining far-red light and nitrite in inhibiting several different measures of clotting using different agonists are disclosed herein.

clotting = tested on: clotting
Description: as §2, §1

[3] = target: T1, partially deoxygenated hemoglobin; details: hemoglobin 10 mM (in heme) in blood, pseudo first order
Description: In addition, nitrite was measured to assess the effective dose that a patient may encounter. […] For all experiments, the same blood was used for control and treatment and the same amount of calcium infused at the same timepoints. For the example shown in FIG. 11A, no calcium was infused. […] For the example shown in FIG. 11B, calcium additions was added at the 1.5 hour mark and at each of the next two 0.5 hour intervals (1.5 mM; 0.75 mM; and 0.375 mM).

oxygenated Hb (OxyHb) = oxygenated Hb (OxyHb) (Homo sapiens, UniProt P68871+P69905); details: NO + HbO2; cited from earlier work
deoxygenated RBCs = assay: Heme nitrosyl export from deoxygenated RBCs incubated with nitrite (tri-iodide chemiluminescence assay); assay type: cell-based; details: with versus without hemopexin

T1 sequence (P69905 2-142 limits assumed): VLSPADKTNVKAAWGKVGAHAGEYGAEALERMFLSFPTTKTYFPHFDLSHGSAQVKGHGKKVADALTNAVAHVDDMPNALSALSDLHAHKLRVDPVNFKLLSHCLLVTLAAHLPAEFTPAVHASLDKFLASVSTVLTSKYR
T1 sequence (P68871 2-147 limits assumed): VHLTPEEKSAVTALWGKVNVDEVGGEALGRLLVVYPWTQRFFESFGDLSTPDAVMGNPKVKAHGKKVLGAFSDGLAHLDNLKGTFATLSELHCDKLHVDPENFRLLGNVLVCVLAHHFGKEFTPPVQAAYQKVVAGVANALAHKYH
Sequence of oxygenated Hb (OxyHb) (P69905 2-142 limits assumed): as the sequence (P69905 2-142 limits assumed) above
Sequence of oxygenated Hb (OxyHb) (P68871 2-147 limits assumed): as the sequence (P68871 2-147 limits assumed) above

## CCN1C(=O)C=CC1=O [NEM, N-ethyl maleimide]
Platelet activation; pre-treatment with thiol binding agent
  effect on platelet inhibition by SNAP-treated RBCs: abrogated

## CC1(C)N([O])C(c2ccc(C(=O)O)cc2)=[N+]([O-])C1(C)C [CPTIO]
Platelet activation
  effect on nitrite-mediated inhibition of platelet activation by RBCs: abrogated

## O=NO [nitrite]
[1]; combined nitrite and red light
  survival time of treated system longer than control circuit, average: 220%
[1]; treated system (nitrite plus light), complete blood count, averaged
  decrease in the number of platelets, first to last sample: 32%
[1]; whole blood, calcium infused, nitrite plus far-red light from the 1.5 hour mark
  pressure in the circuit: decreased to less than that of the control circuit
[2]
  bimolecular rate constant: 1 M⁻¹ s⁻¹
Clotting in blood
  rate of clot growth: decreasing the rate of clot growth
  time to initial fibrin formation (R-time): increasing the time to initial fibrin formation
Platelet adhesion
  platelet adhesion: decreases platelet adhesion
clotting; combination of nitrite and light, all assays
  reduction of clotting: universally effective in reducing clotting
clotting; monotherapy
  reduction of clotting: mixed effects
Platelet activation; RBCs present, nitrite alone
  effect on platelet activation: decreases platelet activation
Platelet activation; RBCs present, nitrite plus far-red light 660 nm, ~5 min
  inhibition of platelet activation: dramatically enhances nitrite bioactivation by RBCs
Platelet activation; nitrite added to activated platelets, absence of RBCs
  effect on platelet activation: has no effect
[3]
  lifetime of the nitrite: about 100 seconds

## [N]=O [NO, Nitric oxide]
Oxygenated Hb (OxyHb)
  rate constant: 6-8×10^7 M^−1s^−1

## O=C(O)c1cc(SSc2ccc([N+](=O)[O-])c(C(=O)O)c2)ccc1[N+](=O)[O-] [DTNB]
Platelet activation
  effect on nitrite-mediated inhibition of platelet activation by RBCs: abrogates inhibition of platelets

## CC(=O)N[C@H](C(=O)O)C(C)(C)SN=O (racemic) [SNAP, S-Nitroso-N-acetylpenicillamine]
Platelet activation; RBCs treated with SNAP, excess removed
  platelet activation with RBCs treated with nitrosating agent, then washed: caused the RBCs to inhibit platelet activation
Platelet activation; RBCs treated, washed, then illuminated
  effect of light illumination on platelet activation with treated RBCs: Light potentiates effects

B1: hemopexin: a plasma protein with extremely high affinity for free heme (protein, UniProt P02790 24-462, looked up)
Hemopexin: TPLPPTSAHGNVAEGETKPDPDVTERCSDGWSFDATTLDDNGTMLFFKGEFVWKSHKWDRELISERWKNFPSPVDAAFRQGHNSVFLIKGDKVWVYPPEKKEKGYPKLLQDEFPGIPSPLDAAVECHRGECQAEGVLFFQGDREWFWDLATGTMKERSWPAVGNCSSALRWLGRYYCFQGNQFLRFDPVRGEVPPRYPRDVRDYFMPCPGRGHGHRNGTGHGNSTHHGPEYMRCSPHLVLSALTSDNHGATYAFSGTHYWRLDTSRDGWHSWPIAHQWPQGPSAVDAAFSWEEKLYLVQGTQVYVFLTKGGYTLVSGYPKRLEKEVGTPHGIILDSVDAAFICPGSSRLHIMAGRRLWWLDLKSGAQATWTELPWPHEKVDGALCMEKSLGPNSCSANGPGLYLIHGPNLYCYSDVEKLNAAKALPQPQNVTSLLGCTH
Deoxygenated RBCs
  NO species in the supernatant: significantly greater NO

— patent US20230149732A1, “COMBINED NITRITE AND LIGHT TREATMENT TO PREVENT DEVICE THROMBOSIS” (Wake Forest University Health Sciences, priority 2021, published 2023)
